# “Also recorded” adds a separate entry of the source.
# How the values were obtained:
# [1] = tested on: IL-8-directed neutrophil TEM through HMVECLs; assay: Neutrophil transendothelial migration (TEM) assay; assay type: cell-based, human; conditions: 10 μM, HMVECLs preincubated at 39.5° C. for 6 h
# [2] = tested on: p38-dependent phosphorylation of MK2 and Stat-1 in HeLa cells; assay: Inhibition of substrate phosphorylation (immunoblot); assay type: cell-based, human; conditions: 10 μM SB203580 or 50 μM UM101 for 30 min
# From the text: Cell extracts prepared in RIPA buffer containing protease and phosphatase inhibitors were resolved by SDS-PAGE, transferred to PVDF membrane, blocked with 5% nonfat dry milk, probed with primary antibodies against phosphorylated MK2 and Stat-1, and total p38α as a loading control. Bands were detected using secondary antibodies conjugated to infrared fluorophores and infrared fluorescence imaging (Odyssey; LICOR).
# p38β = target: T1, p38β (Homo sapiens, UniProt Q15759); assay: DSF, binding to p38β; conditions: DSF melting temperature, concentration series
# T1 construct: HA (N); made in house; host or cells: E. coli BL21
# T1 sequence (Q15759 whole entry): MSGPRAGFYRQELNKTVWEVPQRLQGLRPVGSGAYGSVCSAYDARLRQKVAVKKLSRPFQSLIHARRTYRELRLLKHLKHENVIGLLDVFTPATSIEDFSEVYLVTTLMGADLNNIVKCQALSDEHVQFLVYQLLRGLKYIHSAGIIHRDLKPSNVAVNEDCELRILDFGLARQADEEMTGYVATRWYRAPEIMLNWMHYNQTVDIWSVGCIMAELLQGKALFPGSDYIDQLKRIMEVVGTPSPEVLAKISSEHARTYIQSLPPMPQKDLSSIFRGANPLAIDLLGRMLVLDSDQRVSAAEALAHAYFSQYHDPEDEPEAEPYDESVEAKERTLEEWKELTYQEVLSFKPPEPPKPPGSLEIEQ
smiles,measurement,setting,value
"C[S+]([O-])c1ccc(-c2nc(-c3ccncc3)c(-c3ccc(F)cc3)[nH]2)cc1 (stereo not shown) [SB203580, reference compound]",reduction of hyperthermia-augmented neutrophil TEM,[1],84%
same,"anisomycin-stimulated phosphorylation of MK2, in words",[2],failed to completely block MK2 phosphorylation; also recorded: reduced
same,"anisomycin-stimulated phosphorylation of Stat-1, in words",[2],reduced
same,"stabilization of p38β in DSF (binding), in words",p38β,stabilized both p38α and p38β
